What was measured:
male Wistar rat = assay: Conditioned avoidance response (CAR) model; type: in vivo; settings: 0.1, 0.3, 1, 3, 10 and 20 mg/kg, p.o.
Protocol: All currently approved antipsychotic agents (typical and atypical) are known to have the ability to selectively suppress conditioned avoidance response (CAR) behavior in the rat. This evidence makes CAR one of the primary tests to assess antipsychotic activity of novel compounds.
The effects of Compound Nos. 83, 88 and 90, at concentrations including 0.1, 0.3, 1, 3, 10 and 20 mg/kg, p.o., in the conditioned avoidance response model were assessed in the male Wistar rat. Risperidone (0.3 mg/kg, s.c.) was used in the present study as a positive reference compound.
For each testing session, animals were first placed for a 4-min. habituation period in a shuttlebox with an electrified grid floor. Then, rats were submitted to 30 trials spaced by intertribal intervals varying at random between 20 and 30 sec. Each trial consisted of a 10-sec. light stimulus (conditioned stimulus, CS) followed by a 10-sec. electric foot shock (unconditioned stimulus, US) in presence of the light presented in the compartment where the rat is located. If the animal moved to the other compartment during the initial 10-sec. of the trial, the light was terminated (no shock was delivered) and the response was recorded as an avoidance response. If the rat changed compartment during the foot shock, the light and the shock were terminated and the response was recorded as an unconditioned response. […] If a response was made during an intertrial interval, the response was recorded as an intertrial crossing. Training was performed 5 days per week with one session of 30 trials per day, until rats reached the performance criterion of 80% of avoidance response on at least two consecutive daily sessions. […] A minimal wash-out period of 48 hours was allowed between 2 treatments. During the wash-out period, animals were trained until they recovered an avoidance performance of at least 80%.
Statistical analysis was performed using a Friedman two-way ANOVA by ranks followed by the Wilcoxon matched-pairs signed-ranks test to test each dose of the test compound administered versus vehicle control treated rats.

C57Bl/6J mice = assay: PCP-induced hyperactivity, open field test; type: in vivo, mouse; settings: p.o. 30 min prior to PCP (5.0 mg/kg i.p.), 90 min. test
Protocol: One exemplary model for testing the activity of one or more compounds described herein to treat and/or prevent and/or delay the onset and/or development of schizophrenia employs phencyclidine (PCP), which is administered to the animal (e.g., non-primate (rat) or primate (monkey)), resulting in dysfunctions similar to those seen in schizophrenic humans. See Jentsch et al., 1997, Science 277:953-955 and Piercey et al., 1988, Life Sci. 43(4):375-385). Standard experimental protocols may be employed in this or in other animal models. One protocol involves PCP-induced hyperactivity.
Male C57Bl/6J mice from Jackson Laboratories (Bar Harbor, Me.) were used. Mice were received at 6-weeks of age. Upon receipt, mice were assigned unique identification numbers (tail marked) and were group housed with 4 mice/cage in OPTIMICE ventilated cages. All animals remained housed in groups of four during the remainder of the study. All mice were acclimated to the colony room for at least two weeks prior to testing and were subsequently tested at an average age of 8 weeks of age. During the period of acclimation, mice were examined on a regular basis, handled, and weighed to assure adequate health and suitability. Animals were maintained on a 12 h/12 h light/dark cycle. The room temperature was maintained between 20 and 23° C. with a relative humidity maintained between 30% and 70%. Food and water were provided ad libitum for the duration of the study. In each test, animals were randomly assigned across treatment groups.
The following compounds were used for this study: 1) Compound Nos 83, 88, 90 (0.03, 0.1, 0.3, 1, 3, 10 & 30 mg/kg) was dissolved in 5% PEG-200 in sterile water and administered p.o. 30 min prior to PCP injection; 2) Clozapine (1.0 mg/kg) was dissolved in 10% DMSO and administered i.p. 30 min prior to phencyclidine (PCP) injection; 3) PCP (5.0 mg/kg) was dissolved in sterile water and administered i.p. immediately before the 60 min. test. All compounds were administered at a dose volume of 10 mL/kg.
The open filed (OF) test assesses locomotor behavior, i.e. to measure mouse locomotor activity at baseline and in response to pharmacological agents. The open field chambers are Plexiglas square chambers (27.3×27.3×20.3 cm; Med Associates Inc., St Albans, Vt.) surrounded by infrared photobeams (16×16×16) to measure horizontal and vertical activity. […] Distance traveled was measured from horizontal beam breaks as the mouse moved whereas rearing activity was measured from vertical beam breaks. […]
Data were analyzed by analysis of variance (ANOVA) followed by post-hoc comparisons with Fisher Tests when appropriate. Baseline activity was measured during the first 30 min. of the test prior to PCP injection. PCP-induced activity was measured during the 60 min. following PCP injection. […]

Row | Compound | number of avoidance responses versus pretreatment, compared to vehicle (male Wistar rat) | Total Distance Traveled (center+periphery), ANOVA (C57Bl/6J mice) | Total Rearing (center+periphery), ANOVA (C57Bl/6J mice)
1 | C/C(=C\n1c2c(c3cc(Cl)ccc31)CN(C)CC2)c1ccc(F)cc1 [Compound 83, (E)-8-chloro-5-(2-(4-fluorophenyl)prop-1-enyl)-2,3,4,5-tetrahydro-2-methyl-1H-pyrido[4,3-b]indole] | significantly and dose-dependently decreased | significant treatment effect | significant treatment effect
2 | C/C(=C\n1c2c(c3cc(C)ccc31)CN(C)CC2)c1ccncc1 [Compound 88, (E)-2,3,4,5-tetrahydro-2,8-dimethyl-5-(2-(pyridin-4-yl)prop-1-enyl)-1H-pyrido[4,3-b]indole] | significantly and dose-dependently decreased | significant treatment effect | 
3 | C/C(=C\n1c2c(c3cc(Cl)ccc31)CN(C)CC2)c1ccncc1 [Compound 90, (E)-8-chloro-2,3,4,5-tetrahydro-2-methyl-5-(2-(pyridin-4-yl)prop-1-enyl)-1H-pyrido[4,3-b]indole] | significantly and dose-dependently decreased | significant treatment effect | 

Source: US8906925B2, “Pyrido[4,3-B]indoles containing rigid moieties” (Medivation Technologies, Inc., priority 2008, dated 2014)
